Counter-ions that a name gives are not always drawn.
What was measured:
Type in all cases: biochemical, rat (Male Sprague-Dawley)
5-HT (serotonin) uptake = 5-HT (serotonin) uptake inhibition, synaptosomal preparation (cortex); settings: 5-hydroxytryptamine, rat cortex synaptosomes, 0.1 μM tritiated amine, 37° C., 4 minutes
Description: (§1) For the purpose of identifying compounds as biogenic amine uptake inhibitors capable of interacting with the uptake carrier, ligand-carrier binding assays were carried out as an initial sceen.
(§2) Male Sprague-Dawley derived rats, weighing about 180-250 g each (purchased from Sasco Animal Laboratories, Oregon, Wis.) were sacrificed by decapitation. The brains were immediately removed, placed on a chilled glass plate and dissected according to a modification of the method of Glowinski and Iversen (J. Glowinski and L. L. Iversen, J Neurochem, 1966, 13: 655-669). First, the rhombencephalon was separated by a transverse section and discarded. The rest of the brain was divided into two portions by making another transverse section at the level of the optic chiasma. The hypothalamus, which was used for norepinephrine uptake studies, was removed from the posterior part by using the anterior commissure as the horizontal reference point and a line between the posterior hypothalamus and mammillary bodies as the caudal limit. The striatum, which was used for dopamine uptake studies, was also dissected from the posterior portion using the external wall of the lateral ventricle as the internal limit and the corpus collosum as the external limit. The frontal parts of the striatum were removed from the anterior portion of the cerebrum and combined with the striatal tissue from the posterior segment. The cortex, which was used for serotonin uptake studies, was composed of the rest of the anterior portion of the cerebrum and the cortical surfaces removed from the posterior segment. The hypothalamus and the striatum each weighed about 100 mg or slightly less, whereas the cortex weighed up to 800 mg. The tissues were placed in a cold Potter-Elvehjem glass homogenizer with 5 (cortex) or 10 (hypothalamus) or 20 (striatum) volumes of ice-cold 0.32M sucrose, pH 7, and homogenized by hand. The homogenate was centrifuged (on a Multifuge®, American Scientific Products) at 2500 rpm for 10 minutes in a refrigerated room (~4° C.). The supernatant fraction containing the synaptosomes was decanted, mixed thoroughly and kept on crushed ice for use in the uptake studies.
(§3) Uptake studies were conducted according to the method of Snyder and Coyle (S. H. Snyder and J. T. Coyle, J Pharmacol Exp Ther, 1969, 165: 78-86) with minor modifications. Usually a 0.1 mL aliquot of the synaptosomal preparation was incubated in a mixture of 0.75 mL of modified Krebs-Ringerbuffer, 0.05 mL of the drug being tested, and 0.1 mL of a 1 μM solution of the labeled (tritiated) amine (final concentration 0.1 μM), for a total volume of 1 mL. The modified Krebs-Ringer bicarbonate buffer used in these studies contained 118 mM sodium chloride, 4 mM potassium chloride, 1.3 mM calcium chloride, 1.12 mM potassium dihydrogen phosphate, 1.2 mM magnesium sulfate and 24 mM sodium bicarbonate, with the addition of 5 mM glucose, 0.15 mM disodium EDTA, 12.5 μM nialamide and 1 mM ascorbic acid. Uptake was initiated by the addition of the tritiated amine and the mixture was incubated at 37° C. in a Dubnoff Metabolic Shaking Incubator for 4 minutes. A preincubation period was not included since it had been reported that results were similar with and without preincubation of the synaptosomal preparation (G. Vosmer, et al. Biochem Pharmacol, 1980, 24: 2557-2562). Control incubations without the test drug were conducted at 37° C. to determine total uptake and at 0° C. (in a crushed ice bath) to correct for the diffusion of the tritiated amine into the synaptosomes and/or binding.
(§4) Filtration was used to terminate uptake and collect the synaptosomes (C. A. Csernansky, et al. J Pharmacol Methods, 1985, 13: 187-191). In the filtration technique, the incubation mixture was diluted with ice-cold 0.9% aqueous sodium chloride solution and filtered through GF/B glass microfiber filters (Whatman) under reduced pressure. […]

norepinephrine uptake = experiment: NE (norepinephrine) uptake inhibition, synaptosomal preparation (hypothalamus); settings: rat hypothalamus synaptosomes, 0.1 μM tritiated amine, 37° C., 4 minutes
Description: as §1, §2, §3, §4

dopamine uptake = experiment: DA (dopamine) uptake inhibition, synaptosomal preparation (striatum); settings: rat striatum synaptosomes, 0.1 μM tritiated amine, 37° C., 4 minutes
Description: as §1, §2, §3, §4

| Structure (SMILES) | IC50 (5-HT (serotonin) uptake; hydrochloride) [nM] | IC50 (norepinephrine uptake; hydrochloride) [nM] | IC50 (dopamine uptake; hydrochloride) [nM] | IC50 (5-HT (serotonin) uptake) [nM] | IC50 (norepinephrine uptake) [nM] | IC50 (dopamine uptake) [nM] |
| --- | --- | --- | --- | --- | --- | --- |
| COc1ccc2c(c1)CCC1C(Cc3ccccc3)NCC21 (mixture of isomers) [Example 1, cis/trans 2,3,3a,4,5,9b-Hexahydro-7-methoxy-3-phenylmethyl-1H-benz[e]isoindole hydrochloride] | 7290 | 524 | 7620 |  |  |  |
| COc1ccc2c(c1)CC[C@H]1[C@@H]2CN(C)[C@@H]1Cc1ccccc1 (relative stereo) [Example 8, cis-anti-2,3,3a,4,5,9b-Hexahydro-7-methoxy-2-methyl-3-phenylmethyl-1H-benz[e]isoindole methanesulfonic acid salt] |  |  |  | 2700 | 120 | 4700 |
| CC1C[C@H]2c3ccccc3CC[C@H]2CN1Cc1ccccc1 (relative stereo) [Example 71A, cis-2-Methyl-1,2,3,4,4a,5,6,10b-octahydro-3-phenylmethyl-benz[f]isoquinoline] |  |  |  | 2120 | 9.8 | 450 |
| CC1C[C@H]2c3ccccc3CC[C@H]2CN1Cc1ccccc1 (relative stereo) [Example 71B, cis-2-Methyl-1,2,3,4,4a,5,6,10b-octahydro-3-phenylmethyl-benz[f]isoquinoline] |  |  |  | 2050 | 11.9 | 633 |
| CN1C[C@@H]2c3ccccc3CC[C@@H]2CCC1Cc1ccccc1 (relative stereo) [Example 77, (+)-cis-2-Methyl-1,3,4,5,5a,6,7,11b-octahydro-3-phenylmethyl-2H-naphth[1,2-c]azepine hydrochloride] |  |  |  | 4170 | 190 | 5170 |
| CN1CC2c3ccccc3CCC2C1Cc1cccc(Cl)c1 (single isomer, unassigned) [Example 47, 3-(3-Chlorophenyl)methyl-2,3,3a,4,5,9b-hexahydro-2-methyl-1H-benz[e]isoindole hydrochloride] |  |  |  | 1260 | 41 | 225 |
| CN1CC2c3ccccc3CCC2CCC1Cc1ccccc1 (single isomer, unassigned) [Example 75A, cis-2-Methyl-1,3,4,5,5a,6,7,11b-octahydro-3-phenylmethyl-2H-naphth[1,2-c]azepine hydrochloride] | 227 | 30 | 444 |  |  |  |
| CN1CC2c3ccccc3CCC2CCC1Cc1ccccc1 (single isomer, unassigned) [Example 75B, cis-2-Methyl-1,3,4,5,5a,6,7,11b-octahydro-3-phenylmethyl-2H-naphth[1,2-c]azepine hydrochloride] | 4130 | 513 | 2810 |  |  |  |
| COc1cccc2c1CCC1CCC(Cc3ccccc3)N(C)CC21 (single isomer, unassigned) [Example 76A, 8-Methoxy-2-methyl-1,3,4,5,5a,6,7,11b-octahydro-3-phenylmethyl-2H-naphth[1,2-c]azepine hydrochloride] | 386 | 3.5 | 529 |  |  |  |
| COc1cccc2c1CCC1CCC(Cc3ccccc3)N(C)CC21 (single isomer, unassigned) [Example 76B, 8-Methoxy-2-methyl-1,3,4,5,5a,6,7,11b-octahydro-3-phenylmethyl-2H-naphth[1,2-c]azepine hydrochloride] | 344 | 234 | 2190 |  |  |  |
| CN1CC2c3ccccc3CCC2CCC1Cc1ccccc1 (single isomer, unassigned; (-)) [Example 78, (-) 2-Methyl-1,3,4,5,5a,6,7,11b-octahydro-3-phenylmethyl-2H-naphth[1,2-c]azepine hydrochloride] |  |  |  | < 1000 | 9.7 | 189 |
| COc1ccc2c(c1)CCC1C2CN(C)C1Cc1ccccc1 (stereo not drawn) [Example 2, cis-2,3,3a,4,5,9b-Hexahydro-7-methoxy-2-methyl-3-phenylmethyl-1H-benz[e]isoindole methanesulfonic acid salt] |  |  |  | 4160 | 58 | 182 |
| CCN1CC2c3ccc(OC)cc3CCC2C1Cc1ccccc1 (stereo not drawn) [Example 3, cis-2-Ethyl-2,3,3a,4,5,9b-hexahydro-7-methoxy-3-phenylmethyl-1H-benz[e]isoindole methanesulfonate salt] |  |  |  | 1400 | 18 | 225 |
| COc1ccc2c(c1)CCC1C(Cc3ccccc3)NCC21 (stereo not drawn) [Example 6, trans-2,3,3a,4,5,9b-Hexahydro-7-methoxy-3-phenylmethyl-1H-benz[e]isoindole methanesulfonic acid salt] |  |  |  | 6510 | 543 | 10100 |
| COc1ccc2c(c1)CCC1C2CN(C)C1Cc1ccccc1 (stereo not drawn) [Example 7, trans-2,3,3a,4,5,9b-Hexahydro-7-methoxy-2-methyl-3-phenylmethyl-1H-benz[e]isoindole] |  |  |  | 12200 | 322 | 13400 |
| CN1CC2c3ccccc3CCC2C1Cc1ccccc1 (stereo not drawn) [Example 9, cis-2,3,3a,4,5,9b-Hexahydro-2-methyl-3-phenylmethyl-1H-benz[e]isoindole methanesulfonic acid salt] |  |  |  | 6600 | 48 | 540 |
| CN1CC2c3ccccc3CCC2C1Cc1ccccc1 (stereo not drawn) [Example 10, trans-2,3,3a,4,5,9b-Hexahydro-2-methyl-3-phenylmethyl-1H-benz[e]isoindole methanesulfonic acid salt] |  |  |  | 13500 | 454 | 6720 |
| Cc1cccc(CC2NCC3c4ccccc4CCC23)c1 (stereo not drawn) [Example 11, cis-2,3,3a,4,5,9b-Hexahydro-3-(3-methylphenyl)methyl-1H-benz[e]isoindole hydrochloride] |  |  |  | 827 | 238 | 5140 |
| Cc1cccc(CC2C3CCc4ccccc4C3CN2C)c1 (stereo not drawn) [Example 12, cis-2,3,3a,4,5,9b-Hexahydro-2-methyl-3-(3-methylphenyl)methyl-1H-benz[e]isoindole hydrochloride] |  |  |  | 1780 | 37 | 571 |
| CCN1CC2c3ccccc3CCC2C1Cc1cccc(C)c1 (stereo not drawn) [Example 13, cis-2 -Ethyl-2,3,3a,4,5,9b-hexahydro-3-(3-methylphenyl)methyl-1H-benz[e]isoindole hydrochloride] |  |  |  | 507 | 18 | 148 |
| Fc1cccc(CC2NCC3c4ccccc4CCC23)c1 (stereo not drawn) [Example 15, cis-3-(3-Fluorophenyl)methyl-2,3,3a,4,5,9b-hexahydro-1H-benz[e]isoindole hydrochloride] |  |  |  | 15000 | 347 | 7700 |
| CN1CC2c3ccccc3CCC2C1Cc1cccc(F)c1 (stereo not drawn) [Example 16, cis-3-(3-Fluorophenyl)methyl-2,3,3a,4,5,9b-hexahydro-2-methyl-1H-benz[e]isoindole hydrochloride] |  |  |  | 5450 | 50 | 441 |
| Fc1ccc(CC2NCC3c4ccccc4CCC23)cc1 (stereo not drawn) [Example 17, 3-(4-Fluorophenyl)methyl-2,3,3a,4,5,9b-hexahydro-1 H-benz[e]isoindole methanesulfonic acid salt] |  |  |  | 11000 | 665 | 9200 |
| CN1CC2c3ccccc3CCC2C1Cc1ccc(F)cc1 (stereo not drawn) [Example 18, cis-3-(4-Fluorophenyl)methyl-2,3,3a,4,5,9b-hexahydro-2-methyl-1H-benz[e]isoindole methanesulfonic acid salt] |  |  |  | 2910 | 241 | 4820 |

From patent US5248677A, “Biogentic amine uptake inhibitors” (priority 1992, dated 1993)
